The text below walks through data of ChEMBL document CHEMBL1149955, “The discovery and synthesis of 2-biphenylcarbapenems active against methicillin resistant staphylococci” (1995).

Structures are written as SMILES. Values after ≈ are worked out from the molar mass of the structure shown.

What all share (assay type): functional
Assay [1] has as its target T1, Dipeptidase 1 (Sus scrofa) (UniProt P22412).
T1 sequence (whole entry): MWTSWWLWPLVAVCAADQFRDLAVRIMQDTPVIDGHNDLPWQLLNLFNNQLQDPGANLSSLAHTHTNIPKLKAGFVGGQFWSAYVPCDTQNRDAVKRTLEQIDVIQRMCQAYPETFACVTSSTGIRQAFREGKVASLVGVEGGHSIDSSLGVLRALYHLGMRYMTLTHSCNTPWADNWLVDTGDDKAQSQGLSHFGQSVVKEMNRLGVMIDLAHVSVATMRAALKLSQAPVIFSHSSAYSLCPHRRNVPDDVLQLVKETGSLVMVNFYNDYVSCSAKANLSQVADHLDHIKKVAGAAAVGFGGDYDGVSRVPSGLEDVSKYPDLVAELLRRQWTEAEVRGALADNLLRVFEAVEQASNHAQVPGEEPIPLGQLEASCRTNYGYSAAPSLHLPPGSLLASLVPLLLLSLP
The assay is described as follows: DHP-I susceptibility relative to imipenem.

In assay [2] the test system is Enterococcus sp. The assay is described as follows: Relative potency was calculated against Enterococcus species. (3) by dividing the species index of Imipenem by the species index of the test compound.
Assay [3] concerns Escherichia coli. Briefly: Relative potency was calculated against Escherichia coli (5) by dividing the species index of Imipenem by the species index of the test compound.
Assay [4] relates to Enterobacter sp. The assay is described as follows: Relative potency was calculated against Enterobacter species. (6) by dividing the species index of Imipenem by the species index of the test compound.
In assay [5] the test system is Klebsiella sp. Briefly: Relative potency was calculated against Klebsiella species. (5) by dividing the species index of Imipenem by the species index of the test compound.
The subject of assay [6] is Staphylococcus aureus. Briefly: Relative potency was calculated against Methicillin-resistant Staphylococcus aureus (1) by dividing the species index of Imipenem by the species index of the test compound.
Assay [7] concerns Staphylococcus aureus. The assay is described as follows: Relative potency was calculated against Methicillin-sensitive Staphylococcus aureus (4) by dividing the species index of Imipenem by the species index of the test compound.
In assay [8] the test system is Proteus. The assay is described as follows: Relative potency was calculated against Proteus species. (5) by dividing the species index of Imipenem by the species index of the test compound.
Assay [9] deals with Pseudomonas aeruginosa. Briefly: Relative potency was calculated against Pseudomonas aeruginosa (5 ) by dividing the species index of Imipenem by the species index of the test compound.
Assay [10] concerns Serratia. Briefly: Relative potency was calculated against Serratia species. (2) by dividing the species index of Imipenem by the species index of the test compound.
In assay [11] the test system is Staphylococcus aureus. Briefly: Compound was evaluated for anti-methicillin-resistant activity against methicillin-resistant Staphylococcus aureus CL 1983.
Assay [12] has as its system Staphylococcus aureus. Briefly: Compound was evaluated for anti-methicillin-resistant activity against methicillin-resistant Staphylococcus aureus CL 1985.
For assay [13], the system named is Staphylococcus aureus. Briefly: Compound was evaluated for anti-methicillin-resistant activity against methicillin-resistant Staphylococcus aureus CL 1990.
In assay [14] the test system is Staphylococcus aureus. The assay is described as follows: Compound was evaluated for anti-methicillin-resistant activity against methicillin-resistant Staphylococcus aureus CL 1991.
The subject of assay [15] is Staphylococcus aureus. The assay is described as follows: Compound was evaluated for anti-methicillin-resistant activity against methicillin-resistant Staphylococcus aureus CL 3025.
The subject of assay [16] is Staphylococcus aureus. Briefly: Compound was evaluated for anti-methicillin-resistant activity against methicillin-resistant Staphylococcus aureus CL 3031.
Assay [17] relates to Staphylococcus aureus. The assay is described as follows: Compound was evaluated for anti-methicillin-resistant activity against methicillin-resistant Staphylococcus aureus CL 3033.
Assay [18] relates to Staphylococcus aureus. The assay is described as follows: Compound was evaluated for anti-methicillin-resistant activity against methicillin-resistant Staphylococcus aureus CL 3043.
In assay [19] the test system is Staphylococcus aureus. The assay is described as follows: Compound was evaluated for anti-methicillin-resistant activity against methicillin-resistant Staphylococcus aureus CL 714.
Assay [20] concerns Staphylococcus aureus. Briefly: Compound was evaluated for anti-methicillin-resistant activity against methicillin-resistant Staphylococcus aureus CL 792.
The test system of assay [21] is Staphylococcus aureus. Briefly: Compound was evaluated for anti-methicillin-resistant activity against methicillin-resistant Staphylococcus aureus CL 1395.
The test system of assay [22] is Staphylococcus sp. The assay is described as follows: Compound was evaluated for anti-methicillin-resistant activity against methicillin-resistant coagulase-negative Staphylococci CL 202.
The test system of assay [23] is Staphylococcus sp. Briefly: Compound was evaluated for anti-methicillin-resistant activity against methicillin-resistant coagulase-negative Staphylococci CL 227.
Assay [24] concerns Staphylococcus sp. Briefly: Compound was evaluated for anti-methicillin-resistant activity against methicillin-resistant coagulase-negative Staphylococci CL 546.
Assay [25] has as its system Staphylococcus sp. The assay is described as follows: Compound was evaluated for anti-methicillin-resistant activity against methicillin-resistant coagulase-negative Staphylococci.
Assay [26] deals with Staphylococcus aureus. Briefly: Compound was evaluated for anti-methicillin-resistant activity against methicillin-resistant Staphylococcus aureus.
The subject of assay [27] is Staphylococcus aureus. Briefly: Compound was evaluated for anti-methicillin-resistant activity against methicillin-resistant Staphylococcus aureus CL 1989.
Assay [28] concerns Staphylococcus sp. Briefly: Compound was evaluated for anti-methicillin-resistant activity against methicillin-resistant coagulase-negative Staphylococci CL 171.
Assay [29] relates to Enterococcus sp. Briefly: Antibacterial activity against Enterococcus species. (3).
The test system of assay [30] is Escherichia coli. The assay is described as follows: Antibacterial activity against Escherichia coli (5).
Assay [31] has as its system Enterobacter sp. Briefly: Antibacterial activity against Enterobacter species. (6).
The subject of assay [32] is Staphylococcus aureus. The assay is described as follows: Antibacterial activity against Methicillin-resistant Staphylococcus aureus (1).
Assay [33] deals with Staphylococcus aureus. Briefly: Antibacterial activity against Methicillin-sensitive Staphylococcus aureus (4).
The subject of assay [34] is Proteus. The assay is described as follows: Antibacterial activity against Proteus species. (5).
Assay [35] deals with Pseudomonas aeruginosa. Briefly: Antibacterial activity against Pseudomonas aeruginosa (5 ).
Assay [36] relates to Serratia. Briefly: Antibacterial activity against Serratia species. (2).
Assay [37] relates to Klebsiella sp. The assay is described as follows: Antibacterial activity against Klebsiella species. (5).

For orientation: MIC means the least concentration at which growth counts as inhibited. Lower therefore signals inhibition by little substance. As usually defined, the MIC50 is the lowest concentration that inhibits either 50% of growth or 50% of the strains tested, depending on the study. Low values mean higher susceptibility, high ones lower susceptibility. Broadly, the MIC90 is an inhibitory concentration at the 90% level, which refers to growth in some studies and to a panel of isolates in others. Lower therefore signals greater potency.

`C[C@@H](O)[C@H]1C(=O)N2C(C(=O)[O-])=C(c3cccc(C[n+]4ccccc4N)c3)C[C@H]12` gave a Susceptibility in assay [1] of 0.11. For the same compound, the Relative potency in assay [2] is reported as 12.9; in [3], 1.7; in [4] it was 3; in assay [5], 1.1; in assay [6], 2; in [7], 0.5. The values for the Relative potency in assay [8], in assay [9] and in [10] were 4.2, 0.02 and 4.4, respectively.

Compound `C[C@@H](O)[C@H]1C(=O)N2C(C(=O)[O-])=C(c3cccc(-c4ccc(C[n+]5ccccc5N)cc4)c3)C[C@H]12` yielded a Susceptibility in assay [1] of 0.04. Moreover, the Relative potency in assay [2] was 6.2; in assay [3] it was 0.11; in assay [4], 0.04; in assay [5] it was 0.04; in [6], 154; in assay [7], 0.43. For the same compound, the Relative potency in assay [8] is listed as 0.38; in assay [9] it was 0.01; in assay [10] it was 0.11. Further, the minimal inhibitory concentration (MIC) in assay [11] worked out at 0.5 µg/mL (≈ 1.1 µM); in assay [12], 1 µg/mL (≈ 2.2 µM); in assay [13] it was 1 µg/mL (≈ 2.2 µM); in assay [14], 1 µg/mL (≈ 2.2 µM); in [15] it was 1 µg/mL (≈ 2.2 µM); in assay [16], 2 µg/mL (≈ 4.39 µM). Further, the MIC turned out to be 2 µg/mL (≈ 4.39 µM) in assay [17]; 1 µg/mL (≈ 2.2 µM) in assay [18]; 2 µg/mL (≈ 4.39 µM) in [19]; 1 µg/mL (≈ 2.2 µM) in assay [20]; 2 µg/mL (≈ 4.39 µM) in assay [21]; 2 µg/mL (≈ 4.39 µM) in [22]. The MIC in assay [23] came to 2 µg/mL (≈ 4.39 µM); in assay [24] it was 2 µg/mL (≈ 4.39 µM); in [27] it was 0.5 µg/mL (≈ 1.1 µM); in assay [28], 4 µg/mL (≈ 8.78 µM). Besides, the figures for the MIC50 in assay [25] and in [26] were 2 µg/mL (≈ 4.39 µM) and 1 µg/mL (≈ 2.2 µM), respectively. Further, the results for the MIC90 in [25] and in assay [26] were 4 µg/mL (≈ 8.78 µM) and 2 µg/mL (≈ 4.39 µM), respectively.

Regarding `CN[C@H](CC(C)C)C(=O)N[C@H]1C(=O)N[C@@H](CC(N)=O)C(=O)N[C@H]2C(=O)N[C@H]3C(=O)N[C@H](C(=O)N[C@H](C(=O)O)c4cc(O)cc(O)c4-c4cc3ccc4O)[C@H](O)c3ccc(c(Cl)c3)Oc3cc2cc(c3O[C@@H]2O[C@H](CO)[C@@H](O)[C@H](O)[C@H]2O[C@H]2C[C@](C)(N)[C@H](O)[C@H](C)O2)Oc2ccc(cc2Cl)[C@H]1O` [VANCOMYCIN], the MIC was 8 µg/mL (≈ 5.52 µM) in assay [22], 2 µg/mL (≈ 1.38 µM) in assay [23], 4 µg/mL (≈ 2.76 µM) in [24] and 8 µg/mL (≈ 5.52 µM) in assay [28]. Also, the MIC50 worked out at 4 µg/mL (≈ 2.76 µM) in assay [25] and 1 µg/mL (≈ 0.69 µM) in assay [26]. Also, the MIC90 in assay [25] came to 8 µg/mL (≈ 5.52 µM); in [26], 2 µg/mL (≈ 1.38 µM).

For `COc1cccc(OC)c1C(=O)N[C@@H]1C(=O)N2[C@@H]1SC(C)(C)[C@@H]2C(=O)[O-].[Na+]`, the minimal inhibitory concentration (MIC) stood at 64 µg/mL in assay [11]; 64 µg/mL in assay [12]; 128 µg/mL in assay [13]; 64 µg/mL in [14]; 64 µg/mL in assay [15]; 256 µg/mL in [16]. Further, the MIC was more than 512 µg/mL in assay [17]; 128 µg/mL in [18]; 512 µg/mL in [19]; 512 µg/mL in [20]; 512 µg/mL in assay [21]; more than 512 µg/mL in assay [22]. Besides, the MIC in [23] was 512 µg/mL; in assay [24] it was more than 512 µg/mL; in assay [27] it was 64 µg/mL; in assay [28], more than 512 µg/mL. Besides, the MIC50 is more than 512 µg/mL in assay [25] and 128 µg/mL in assay [26]. The MIC90 was more than 512 µg/mL in assay [25] and 512 µg/mL in assay [26].

Take `C[C@@H](O)[C@H]1C(=O)N2C(C(=O)O)=C(SCCNC=N)C[C@H]12` [IMIPENEM ANHYDROUS]: the Susceptibility in assay [1] was determined as 1. Moreover, the minimum inhibitory concentration (MIC) amounted to 1.8 µg/mL (≈ 6.01 µM) in assay [29]; 0.19 µg/mL (≈ 0.635 µM) in [30]; 0.18 µg/mL (≈ 0.601 µM) in [31]; 33 µg/mL (≈ 110 µM) in assay [32]; 0.01 µg/mL (≈ 0.0334 µM) in assay [33]; 0.78 µg/mL (≈ 2.61 µM) in assay [34]. Besides, the MIC in assay [35] was found to be 0.36 µg/mL (≈ 1.2 µM); in assay [11] it was 1 µg/mL (≈ 3.34 µM); in assay [12], 1 µg/mL (≈ 3.34 µM); in [13], 4 µg/mL (≈ 13.4 µM); in [14], 1 µg/mL (≈ 3.34 µM); in [15] it was 2 µg/mL (≈ 6.68 µM). In addition, the MIC in assay [16] was found to be 32 µg/mL (≈ 107 µM); in assay [17], 128 µg/mL (≈ 428 µM); in assay [18], 16 µg/mL (≈ 53.4 µM); in assay [19], 32 µg/mL (≈ 107 µM); in assay [20], 32 µg/mL (≈ 107 µM); in [21], 64 µg/mL (≈ 214 µM). For the same compound, the minimal inhibitory concentration (MIC) in [36] was 0.29 µg/mL (≈ 0.969 µM); in assay [22], more than 128 µg/mL; in assay [23] it was 64 µg/mL (≈ 214 µM); in assay [24] it was 64 µg/mL (≈ 214 µM); in assay [37] it was 0.29 µg/mL (≈ 0.969 µM); in [27], 2 µg/mL (≈ 6.68 µM). In assay [28], the MIC was more than 128 µg/mL. In addition, the MIC50 in assay [25] worked out at 64 µg/mL (≈ 214 µM); in [26], 4 µg/mL (≈ 13.4 µM). Moreover, the MIC90 in [25] is more than 128 µg/mL; in assay [26] it was 64 µg/mL (≈ 214 µM).

`C[C@@H](O)[C@H]1C(=O)N2C(C(=O)[O-])=C(c3ccc(-c4ccc(C[n+]5ccc(N(C)C)cc5)cc4)cc3)C[C@H]12`: the Susceptibility in [1] was determined as 0.46. Besides, the Relative potency is recorded as 2 in assay [2]; 0.31 in assay [3]; 0.12 in assay [4]; 0.04 in assay [5]; 3.9 in assay [6]; 0.16 in [7]. Further, the results for the Relative potency in assay [8], in [9] and in assay [10] were 0.44, 0.013 and 0.26, respectively.
